As a reminder, the CC50 is the concentration giving 50% cytotoxicity. Higher therefore signals lower toxicity to the cells. What is called pEC50 is the EC50 on a negative log10 scale, so that one unit is a factor of ten.

SMILES strings stand for the structures. pEC50: −log10 of the molar value. Some results are limits rather than exact numbers.

Among the data in patent publication US11236087B2, “Highly active pyrazolo-piperidine substituted indole-2-carboxamides active against the hepatitis B virus (HBV)” (AiCuris GmbH & Co. KG, priority 2017, dated 2022) are CC50 and EC50 values, retold here.

The nature of series [1]: Cell viability assay (AlamarBlue) in HepAD38 cells. The settings on record: human. Background: The colour change of resazurin is a common sign of viable cells or microbes.
The subject of series [2] is HBV. In words: Determination of HBV DNA from the supernatants of HepAD38 cells (anti-HBV activity). It counts as cell-based, hepatitis B virus. The settings on record: Hepatitis B virus, 144 h; HBV DNA in HepAD38 supernatant, day 6, qPCR; read-out: Cell Activity (EC50). On the procedure:
Determination of HBV DNA from the Supernatants of HepAD38 Cells
The anti-HBV activity was analysed in the stable transfected cell line HepAD38, which has been described to secrete high levels of HBV virion particles (Ladner et al., 1997). In brief, HepAD38 cells were cultured at 37° C. at 5% CO2 and 95% humidity in 200 μl maintenance medium, which was Dulbecco's modified Eagle's medium/Nutrient Mixture F-12 (Gibco, Karlsruhe), 10% fetal bovine serum (PAN Biotech Aidenbach) supplemented with 50 μg/ml penicillin/streptomycin (Gibco, Karlsruhe), 2 mM L-glutamine (PAN Biotech, Aidenbach), 400 μg/ml G418 (AppliChem, Darmstadt) and 0.3 μg/ml tetracycline. Cells were subcultured once a week in a 1:5 ratio, but were usually not passaged more than ten times. For the assay 60,000 cells were seeded in maintenance medium without any tetracycline into each well of a 96-well plate and treated with serial half-log dilutions of test compound. To minimize edge effects the outer 36 wells of the plate were not used but were filled with assay medium. On each assay plate six wells for the virus control (untreated HepAD38 cells) and six wells for the cell control (HepAD38 cells treated with 0.3 μg/ml tetracycline) were allocated, respectively. In addition, one plate set with reference inhibitors like BAY 41-4109, entecavir, and lamivudine instead of screening compounds were prepared in each experiment. In general, experiments were performed thrice in triplicates. At day 6 HBV DNA from 100 μl filtrated cell culture supernatant (AcroPrep Advance 96 Filter Plate, […] Supor membran, PALL GmbH, Dreieich) was automatically purified on the MagNa Pure LC instrument using the MagNA Pure 96 DNA and Viral NA Small Volume Kit (Roche Diagnostics, Mannheim) according to the instructions of the manufacturer. EC50 values were calculated from relative copy numbers of HBV DNA In brief, 5 μl of the 100 μl eluate containing HBV DNA were subjected to PCR LC480 Probes Master Kit (Roche) together with 1 μM antisense primer […], 0.5 μM sense primer […], 0.3 μM hybprobes […]-FL and LC640-[…]-PH (TIBMoBiol, Berlin) to a final volume of 12.5 μl. The PCR was performed on the Light Cycler 480 real time system (Roche Diagnostics, Mannheim) using the following protocol: Pre-incubation for 1 min at 95° C., amplification: 40 cycles×(10 sec at 95° C., 50 sec at 60° C., 1 sec at 70° C.), cooling for 10 sec at 40° C. Viral load was quantitated against known standards using HBV plasmid DNA of pCH-9/3091 (Nassal et al., 1990, Cell 63: 1357-1363) and the LightCycler 480 SW 1.5 software (Roche Diagnostics, Mannheim) and EC50 values were calculated using non-linear regression with GraphPad Prism 6 (GraphPad Software Inc., La Jolla, USA).
For orientation: In qPCR the cycle at which signal appears reflects the starting amount.

With `CN(C(=O)c1n[nH]c2c1CN(C(=O)c1cc3ccccc3[nH]1)CC2)C1(c2ccccc2)CC1` [Example 221, 5-(1H-indole-2-carbonyl)-N-methyl-N-(1-phenylcyclopropyl)-1H,4H,5H,6H,7H-pyrazolo[4,3-c]pyridine-3-carboxamide], the CC50 at 6 days in series [1] is over 10 µM. Further, in series [2], the pEC50 was over 6.00.

In series [1], `O=C(c1cc2ccccc2[nH]1)N1CCc2[nH]nc(C(=O)N3CC(F)(F)C3)c2C1` [Example 222, 2-[3-(3,3-difluoroazetidine-1-carbonyl)-1H,4H,5H,6H,7H-pyrazolo[4,3-c]pyridine-5-carbonyl]-1H-indole] gave a 50% cytotoxic concentration (CC50) at 6 days of over 10 µM. In series [2], the pEC50 is over 6.00.

`O=C(c1cc2ccccc2[nH]1)N1CCc2[nH]nc(C(=O)N3CC(F)(F)C(F)(F)C3)c2C1` [Example 223, 2-[3-(3,3,4,4-tetrafluoropyrrolidine-1-carbonyl)-1H,4H,5H,6H,7H-pyrazolo[4,3-c]pyridine-5-carbonyl]-1H-indole] showed a CC50 at 6 days in series [1] of over 10 µM. In series [2], the negative logarithm of the EC50 (pEC50) is 4.60 to 6.00.

Take `O=C(c1cc2ccccc2[nH]1)N1CCc2[nH]nc(C(=O)N3CC[C@H](F)C3)c2C1` [Example 224, 2-{3-[(3S)-3-fluoropyrrolidine-1-carbonyl]-1H,4H,5H,6H,7H-pyrazolo[4,3-c]pyridine-5-carbonyl}-1H-indole]: the cytotoxic concentration (CC50) at 6 days in series [1] was over 10 µM. In series [2], the negative logarithm of the EC50 (pEC50) is over 6.00.

With `O=C(c1cc2ccccc2[nH]1)N1CCc2[nH]nc(C(=O)N3CC[C@@H](F)C3)c2C1` [Example 225, 2-{3-[(3R)-3-fluoropyrrolidine-1-carbonyl]-1H,4H,5H,6H,7H-pyrazolo[4,3-c]pyridine-5-carbonyl}-1H-indole], the CC50 at 6 days in series [1] was over 10 µM. Besides, the pEC50 in series [2] is over 6.00.

`COC(=O)CC1(N(C)C(=O)c2n[nH]c3c2CN(C(=O)c2cc4ccccc4[nH]2)CC3)CC1` [Example 226, methyl 2-{1-[N-methyl 5-(1H-indole-2-carbonyl)-1H,4H,5H,6H,7H-pyrazolo[4,3-c]pyridine-3-amido]cyclopropyl}acetate] registered a cytotoxic concentration (CC50) at 6 days in series [1] of over 10 µM. Also, in series [2], the negative logarithm of the EC50 (pEC50) is 4.60 to 6.00.

Consider `CCc1cc(F)cc2[nH]c(C(=O)N3CCc4[nH]nc(C(=O)N5CCC(F)(F)C5)c4C3)cc12` [Example 227, 2-[3-(3,3-difluoropyrrolidine-1-carbonyl)-1H,4H,5H,6H,7H-pyrazolo[4,3-c]pyridine-5-carbonyl]-4-ethyl-6-fluoro-1H-indole], for which the half-maximal cytotoxic concentration (CC50) at 6 days in series [1] was over 10 µM. Besides, in series [2], the pEC50 was over 6.00.

For `CCc1cccc2[nH]c(C(=O)N3CCc4[nH]nc(C(=O)N5CCC(F)(F)C5)c4C3)cc12` [Example 228, 2-[3-(3,3-difluoropyrrolidine-1-carbonyl)-1H,4H,5H,6H,7H-pyrazolo[4,3-c]pyridine-5-carbonyl]-4-ethyl-1H-indole], in series [1], the CC50 at 6 days is over 10 µM. Also, the pEC50 in series [2] is over 6.00.

`O=C(c1cc2c(Cl)cc(F)cc2[nH]1)N1CCc2[nH]nc(C(=O)N3CCC(F)(F)C3)c2C1` [Example 229, 4-chloro-2-[3-(3,3-difluoropyrrolidine-1-carbonyl)-1H,4H,5H,6H,7H-pyrazolo[4,3-c]pyridine-5-carbonyl]-6-fluoro-1H-indole]: in series [1], the CC50 at 6 days is over 10 µM. For the same compound, in series [2], the pEC50 was over 6.00.

In the case of `O=C(c1cc2c(Cl)cccc2[nH]1)N1CCc2[nH]nc(C(=O)N3CCC(F)(F)C3)c2C1` [Example 230, 4-chloro-2-[3-(3,3-difluoropyrrolidine-1-carbonyl)-1H,4H,5H,6H,7H-pyrazolo[4,3-c]pyridine-5-carbonyl]-1H-indole], in series [1], the half-maximal cytotoxic concentration (CC50) at 6 days was over 10 µM. The pEC50 in series [2] is over 6.00.

As to `O=C(c1cc2c(F)c(F)ccc2[nH]1)N1CCc2[nH]nc(C(=O)N3CCC(F)(F)C3)c2C1` [Example 231, 2-[3-(3,3-difluoropyrrolidine-1-carbonyl)-1H,4H,5H,6H,7H-pyrazolo[4,3-c]pyridine-5-carbonyl]-4,5-difluoro-1H-indole], in series [1], the CC50 at 6 days was over 10 µM. Besides, in series [2], the pEC50 is over 6.00.

Turning to `CC(=O)N1CCN(C(=O)c2[nH]nc3c2CN(C(=O)c2cc4ccccc4[nH]2)CC3)C2(CC2)C1` [Example 236, 1-{4-[5-(1H-indole-2-carbonyl)-2H,4H,5H,6H,7H-pyrazolo[4,3-c]pyridine-3-carbonyl]-4,7-diazaspiro[2.5]octan-7-yl}ethan-1-one], the CC50 at 6 days in series [1] is over 10 µM. Further, the negative-log EC50 (pEC50) in series [2] was 4.60 to 6.00.

In series [1], `CN(C(=O)c1n[nH]c2c1CN(C(=O)c1cc3ccccc3[nH]1)CC2)C1(CCC(N)=O)CC1` [Example 237, N-[1-(2-carbamoylethyl)cyclopropyl]-5-(1H-indole-2-carbonyl)-N-methyl-1H,4H,5H,6H,7H-pyrazolo[4,3-c]pyridine-3-carboxamide] gave a cytotoxic concentration (CC50) at 6 days of over 10 µM. The pEC50 in series [2] was over 4.00.

`CN(C(=O)c1n[nH]c2c1CN(C(=O)c1cc3c(F)cc(F)cc3[nH]1)CC2)C1(CO)CC1` [Example 238, 5-(4,6-difluoro-1H-indole-2-carbonyl)-N-[1-(hydroxymethyl)cyclopropyl]-N-methyl-1H,4H,5H,6H,7H-pyrazolo[4,3-c]pyridine-3-carboxamide]: the 50% cytotoxic concentration (CC50) at 6 days in series [1] is over 10 µM. Further, the negative-log EC50 (pEC50) in series [2] was over 6.00.

In turn, `CN(C(=O)c1n[nH]c2c1CN(C(=O)c1cc3c(Cl)c(F)ccc3[nH]1)CC2)C1(CO)CC1` [Example 239, 5-(4-chloro-5-fluoro-1H-indole-2-carbonyl)-N-[1-(hydroxymethyl)cyclopropyl]-N-methyl-1H,4H,5H,6H,7H-pyrazolo[4,3-c]pyridine-3-carboxamide] showed a CC50 at 6 days in series [1] of over 10 µM. Also, the pEC50 in series [2] was over 6.00.

Consider `CN(C(=O)c1n[nH]c2c1CN(C(=O)c1cc3c(F)c(F)ccc3[nH]1)CC2)C1(CO)CC1` [Example 240, 5-(4,5-difluoro-1H-indole-2-carbonyl)-N-[1-(hydroxymethyl)cyclopropyl]-N-methyl-1H,4H,5H,6H,7H-pyrazolo[4,3-c]pyridine-3-carboxamide], for which, in series [1], the CC50 at 6 days was over 10 µM. In series [2], the negative-log EC50 (pEC50) is over 6.00.

Compound `CN(C(=O)c1n[nH]c2c1CN(C(=O)c1cc3c(Cl)cc(F)cc3[nH]1)CC2)C1(CO)CC1` [Example 241, 5-(4-chloro-6-fluoro-1H-indole-2-carbonyl)-N-[1-(hydroxymethyl)cyclopropyl]-N-methyl-1H,4H,5H,6H,7H-pyrazolo[4,3-c]pyridine-3-carboxamide] had a CC50 at 6 days in series [1] of over 10 µM. Further, in series [2], the negative logarithm of the EC50 (pEC50) is over 6.00.

For `CN(C(=O)c1n[nH]c2c1CN(C(=O)c1cc3cc(F)c(Cl)cc3[nH]1)CC2)C1(CO)CC1` [Example 242, 5-(6-chloro-5-fluoro-1H-indole-2-carbonyl)-N-[1-(hydroxymethyl)cyclopropyl]-N-methyl-1H,4H,5H,6H,7H-pyrazolo[4,3-c]pyridine-3-carboxamide], the CC50 at 6 days in series [1] was over 10 µM. Further, the pEC50 in series [2] is over 6.00.

With `Cc1cc(F)cc2[nH]c(C(=O)N3CCc4[nH]nc(C(=O)N(C)C5(CO)CC5)c4C3)cc12` [Example 243, 5-(6-fluoro-4-methyl-1H-indole-2-carbonyl)-N-[1-(hydroxymethyl)cyclopropyl]-N-methyl-1H,4H,5H,6H,7H-pyrazolo[4,3-c]pyridine-3-carboxamide], the CC50 at 6 days in series [1] is over 10 µM. The pEC50 in series [2] is over 6.00.

In series [1], `O=C(c1cc2ccccc2[nH]1)N1CCc2n[nH]c(C(=O)N3CCN(Cc4ccccc4)C4(CC4)C3)c2C1` [Example 257, 2-(3-{4-benzyl-4,7-diazaspiro[2.5]octane-7-carbonyl}-2H,4H,5H,6H,7H-pyrazolo[4,3-c]pyridine-5-carbonyl)-1H-indole] returned a CC50 at 6 days of over 10 µM. Moreover, the pEC50 in series [2] was 4.60 to 6.00.

As to `CN(C(=O)c1[nH]nc2c1CN(C(=O)c1cc3ccccc3[nH]1)CC2)C1(C(=O)OC(C)(C)C)CC1` [Example 258, tert-butyl 1-[N-methyl 5-(1H-indole-2-carbonyl)-2H,4H,5H,6H,7H-pyrazolo[4,3-c]pyridine-3-amido]cyclopropane-1-carboxylate], the CC50 at 6 days in series [1] was over 10 µM. Also, in series [2], the pEC50 is 4.60 to 6.00.
